Experimental data published in ChEMBL document CHEMBL2074039 (Biochem Pharmacol, 1993).

What was measured:
[1] = molecular target: T1, ATP-dependent translocase ABCB1 (Homo sapiens, UniProt P08183); experiment: TP_TRANSPORTER: inhibition of Azidopine photoaffinity labelling (Azidopine: 0.2 uM, trans-flupenthioxol: 1 uM) in membranes from KB/V20C cells; format: functional, cell membranes, Membrane
[2] = molecular target: T1, ATP-dependent translocase ABCB1; experiment: TP_TRANSPORTER: increase in Doxorubicin intracellular accumulation (Doxorubicin: 0-20 uM, trans-flupenthixol: 5 uM) in MCF-7/ADR cells; format: functional, cell-based; conditions: nci/adr-res

T1 sequence (P08183 whole entry): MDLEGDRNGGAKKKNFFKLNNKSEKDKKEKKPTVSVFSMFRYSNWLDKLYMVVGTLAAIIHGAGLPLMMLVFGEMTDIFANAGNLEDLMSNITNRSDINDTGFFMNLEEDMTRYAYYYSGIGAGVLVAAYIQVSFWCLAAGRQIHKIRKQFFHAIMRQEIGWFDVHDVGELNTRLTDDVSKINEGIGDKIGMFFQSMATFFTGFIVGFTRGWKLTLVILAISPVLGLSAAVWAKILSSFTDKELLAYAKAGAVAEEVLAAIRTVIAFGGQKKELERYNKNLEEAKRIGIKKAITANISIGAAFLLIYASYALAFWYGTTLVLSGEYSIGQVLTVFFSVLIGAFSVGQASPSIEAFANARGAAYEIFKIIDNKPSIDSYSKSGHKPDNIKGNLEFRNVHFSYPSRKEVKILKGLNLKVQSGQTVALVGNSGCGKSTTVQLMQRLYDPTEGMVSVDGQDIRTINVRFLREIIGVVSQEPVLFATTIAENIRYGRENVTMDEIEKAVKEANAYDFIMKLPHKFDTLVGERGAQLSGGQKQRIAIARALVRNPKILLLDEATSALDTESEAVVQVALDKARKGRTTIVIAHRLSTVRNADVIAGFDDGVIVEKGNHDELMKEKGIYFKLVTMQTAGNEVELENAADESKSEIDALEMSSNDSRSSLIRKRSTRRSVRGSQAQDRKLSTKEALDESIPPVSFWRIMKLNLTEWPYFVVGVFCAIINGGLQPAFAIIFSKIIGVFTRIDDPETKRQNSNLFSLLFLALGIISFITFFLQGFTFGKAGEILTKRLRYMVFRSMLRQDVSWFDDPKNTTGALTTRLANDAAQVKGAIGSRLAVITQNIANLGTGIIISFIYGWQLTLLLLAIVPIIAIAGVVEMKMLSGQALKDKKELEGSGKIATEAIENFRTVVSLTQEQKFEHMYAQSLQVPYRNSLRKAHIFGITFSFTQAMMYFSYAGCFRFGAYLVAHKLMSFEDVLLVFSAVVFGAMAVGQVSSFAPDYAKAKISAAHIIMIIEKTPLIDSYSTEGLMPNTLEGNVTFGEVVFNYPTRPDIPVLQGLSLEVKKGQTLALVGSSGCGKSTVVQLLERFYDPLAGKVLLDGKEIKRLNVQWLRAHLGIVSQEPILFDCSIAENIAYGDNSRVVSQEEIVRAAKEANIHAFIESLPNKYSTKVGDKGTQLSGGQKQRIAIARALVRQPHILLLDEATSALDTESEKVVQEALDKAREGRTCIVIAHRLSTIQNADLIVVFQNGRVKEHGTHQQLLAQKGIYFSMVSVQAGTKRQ

OCCN1CCN(CC/C=C2\c3ccccc3Sc3ccc(C(F)(F)F)cc32)CC1 [E-FLUPENTIXOL]
Activity [1]: inhibitor [+] | Activity [2]: inhibitor [2 to 3-fold]
